Where a name gives a salt, the structure may show the parent alone.
Target: ATM (Homo sapiens (Human), UniProt Q13315)
Test: ATM in Cell Western Assay (pKAP1 in etoposide-treated MCF-7 cells)
Assay type: cell-based
Conditions: MCF-7 cells, etoposide 100 μM, 1 hr, pKAP1 readout
Summary of the method: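 Cells received compounds in a 10-dose, 3-fold series from a 1 μM final top concentration, then 100 μM etoposide, for 1 hr at 37° C. They were then fixed with paraformaldehyde and permeabilized with 0.1% Triton X-100. After immunostaining, plates were scanned on an infrared imager.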

ATM, sequence (Q13315 whole entry): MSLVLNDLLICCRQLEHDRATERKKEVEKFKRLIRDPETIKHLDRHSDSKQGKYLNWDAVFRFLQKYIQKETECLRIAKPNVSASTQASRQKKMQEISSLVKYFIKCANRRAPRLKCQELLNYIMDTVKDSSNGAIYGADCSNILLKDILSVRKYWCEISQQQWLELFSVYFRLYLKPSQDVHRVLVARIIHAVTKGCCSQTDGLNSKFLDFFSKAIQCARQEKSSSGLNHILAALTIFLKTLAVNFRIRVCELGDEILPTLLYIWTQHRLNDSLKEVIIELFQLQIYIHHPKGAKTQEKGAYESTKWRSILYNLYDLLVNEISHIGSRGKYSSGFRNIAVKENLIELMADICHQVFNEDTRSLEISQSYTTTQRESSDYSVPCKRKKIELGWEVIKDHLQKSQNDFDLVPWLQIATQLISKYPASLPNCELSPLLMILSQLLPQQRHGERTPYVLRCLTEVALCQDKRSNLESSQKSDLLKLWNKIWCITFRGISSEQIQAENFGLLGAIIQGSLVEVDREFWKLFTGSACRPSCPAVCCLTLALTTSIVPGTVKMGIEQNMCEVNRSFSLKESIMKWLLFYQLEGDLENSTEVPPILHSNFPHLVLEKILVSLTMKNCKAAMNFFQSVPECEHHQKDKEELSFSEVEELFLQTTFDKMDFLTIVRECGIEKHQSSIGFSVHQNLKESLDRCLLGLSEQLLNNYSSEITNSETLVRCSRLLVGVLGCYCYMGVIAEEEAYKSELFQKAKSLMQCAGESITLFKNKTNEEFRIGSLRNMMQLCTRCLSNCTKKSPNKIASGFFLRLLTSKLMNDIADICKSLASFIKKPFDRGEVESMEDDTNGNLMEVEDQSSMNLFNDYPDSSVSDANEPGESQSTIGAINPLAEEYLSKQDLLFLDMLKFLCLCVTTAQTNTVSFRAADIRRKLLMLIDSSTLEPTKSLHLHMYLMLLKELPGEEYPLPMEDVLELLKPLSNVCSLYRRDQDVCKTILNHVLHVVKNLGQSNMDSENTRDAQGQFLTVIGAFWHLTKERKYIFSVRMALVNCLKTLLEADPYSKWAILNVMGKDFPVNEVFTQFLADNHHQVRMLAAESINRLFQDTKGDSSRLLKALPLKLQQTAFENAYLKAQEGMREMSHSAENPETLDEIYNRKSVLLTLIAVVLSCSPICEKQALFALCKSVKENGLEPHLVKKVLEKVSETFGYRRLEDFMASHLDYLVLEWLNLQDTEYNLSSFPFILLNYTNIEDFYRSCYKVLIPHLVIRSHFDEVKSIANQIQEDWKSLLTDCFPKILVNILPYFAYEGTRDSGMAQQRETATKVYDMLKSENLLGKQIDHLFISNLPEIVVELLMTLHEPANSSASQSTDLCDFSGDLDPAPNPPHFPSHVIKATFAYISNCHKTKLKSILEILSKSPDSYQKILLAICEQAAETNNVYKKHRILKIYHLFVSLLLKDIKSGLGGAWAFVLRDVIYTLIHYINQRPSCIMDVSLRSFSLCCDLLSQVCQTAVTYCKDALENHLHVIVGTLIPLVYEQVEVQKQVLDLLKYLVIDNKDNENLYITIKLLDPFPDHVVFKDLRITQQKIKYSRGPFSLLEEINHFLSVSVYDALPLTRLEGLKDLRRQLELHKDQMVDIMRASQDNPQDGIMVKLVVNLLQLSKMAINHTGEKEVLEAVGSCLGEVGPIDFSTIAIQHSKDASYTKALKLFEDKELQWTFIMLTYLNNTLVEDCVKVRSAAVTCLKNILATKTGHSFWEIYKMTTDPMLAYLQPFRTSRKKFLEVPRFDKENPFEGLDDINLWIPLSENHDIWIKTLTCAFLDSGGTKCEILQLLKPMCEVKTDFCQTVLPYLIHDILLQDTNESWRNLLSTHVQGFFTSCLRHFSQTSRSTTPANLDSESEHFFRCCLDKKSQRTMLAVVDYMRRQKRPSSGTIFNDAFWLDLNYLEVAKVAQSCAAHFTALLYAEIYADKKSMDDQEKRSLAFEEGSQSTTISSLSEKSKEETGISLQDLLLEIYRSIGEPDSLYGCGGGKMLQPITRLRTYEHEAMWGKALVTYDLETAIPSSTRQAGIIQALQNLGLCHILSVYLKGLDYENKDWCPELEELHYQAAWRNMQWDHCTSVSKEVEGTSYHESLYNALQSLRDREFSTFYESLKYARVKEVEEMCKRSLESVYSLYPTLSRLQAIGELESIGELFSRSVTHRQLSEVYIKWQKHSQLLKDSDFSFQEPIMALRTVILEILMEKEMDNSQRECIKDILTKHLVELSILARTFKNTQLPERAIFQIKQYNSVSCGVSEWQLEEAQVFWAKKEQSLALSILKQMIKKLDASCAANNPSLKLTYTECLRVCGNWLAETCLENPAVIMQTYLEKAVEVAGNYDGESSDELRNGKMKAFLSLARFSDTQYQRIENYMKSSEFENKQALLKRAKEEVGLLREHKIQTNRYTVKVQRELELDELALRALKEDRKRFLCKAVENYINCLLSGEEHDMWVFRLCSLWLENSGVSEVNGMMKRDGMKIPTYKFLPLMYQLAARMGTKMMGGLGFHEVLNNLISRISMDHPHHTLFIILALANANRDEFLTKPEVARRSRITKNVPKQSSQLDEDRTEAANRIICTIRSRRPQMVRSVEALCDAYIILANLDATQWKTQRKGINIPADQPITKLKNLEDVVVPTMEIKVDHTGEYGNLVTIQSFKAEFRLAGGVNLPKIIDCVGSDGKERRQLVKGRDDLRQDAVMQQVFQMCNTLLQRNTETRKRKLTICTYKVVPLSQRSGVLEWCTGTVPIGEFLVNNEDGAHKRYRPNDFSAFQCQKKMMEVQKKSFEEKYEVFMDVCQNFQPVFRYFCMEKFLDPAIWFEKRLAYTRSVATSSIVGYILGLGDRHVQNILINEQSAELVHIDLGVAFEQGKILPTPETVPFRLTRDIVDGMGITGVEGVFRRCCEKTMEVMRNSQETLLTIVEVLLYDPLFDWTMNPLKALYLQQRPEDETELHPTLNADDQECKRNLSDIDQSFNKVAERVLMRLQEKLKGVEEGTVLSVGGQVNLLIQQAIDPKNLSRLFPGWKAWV

Row | IC50 | SMILES
1 | < 0.0005 µM | CN(C)CCCOc1ncc(-c2ccc3ncc4c(c3c2)C2(CC2)C(=O)N4C)cc1NS(=O)(=O)c1ccc(C(F)(F)F)cc1 [Example 108]
2 | > 0.1 µM | CN1C(=O)C2(CC2)c2c1cnc1ccc(-c3ccc4c(ccc(=O)n4C)c3)cc21 [Example 45, 3′-Methyl-8′-(1-methyl-2-oxo-1,2-dihydroquinolin-6-yl)spiro[cyclopropane-1,1′-pyrrolo[2,3-c]quinolin]-2′(3′-H)-one]
3 | 0.001 to 0.1 µM | CCN(C)C1CN(c2ncc(-c3cc4c5c(cnc4cc3F)N(C)C(=O)C53CCC3)cc2NS(C)(=O)=O)C1 [Example 313, N-(2-(3-(Ethyl(methyl)amino)azetidin-1-yl)-5-(7′-fluoro-3′-methyl-2′-oxo-2′,3′-dihydrospiro[cyclobutane-1,1′-pyrrolo[2,3-c]quinolin]-8′-yl)pyridin-3-yl)methanesulfonamide hydrochloride]
4 | > 0.1 µM | CN(C)CCCOc1ncc(-c2ccc3ncc4c(c3c2)N(C)C2(CC2)C(=O)N4C)cc1NS(=O)(=O)c1ccccc1 [Example 74, N-(5-(1′,4′-Dimethyl-3′-oxo-34′-dihydro-1′H-spiro[cyclopropane-1,2′-pyrazino[2,3-c]quinolin]-9′-yl)-2-(3-(dimethylamino)propoxy)pyridin-3-yl) benzenesulfonamide]
5 | > 0.1 µM | CN1C(=O)C2(CCC2)c2c1cnc1ccc(-c3cnc(N4CCS(=N)(=O)CC4)c(NS(=O)(=O)c4ccccc4)c3)cc21 (racemic) [Example 138, rac-N-(2-(1-Imino-1-oxido-1λ^6-thiomorpholino)-5-(3′-methyl-2′-oxo-2′,3′-dihydrospiro[cyclobutane-1,1′-pyrrolo[2,3-c]quinolin]-8′-yl)pyridin-3-yl)benzenesulfonamide hydrochloride]
6 | > 0.1 µM | CN(C)CCOCc1ncc(-c2ccc3ncc4c(c3c2)C2(CCC2)C(=O)N4C)cc1NS(C)(=O)=O [Example 265, N-(2-((2-(Dimethylamino)ethoxy)methyl)-5-(3′-methyl-2′-oxo-2′,3′-dihydrospiro [cyclobutane-1,1′-pyrrolo[2,3-c]quinolin]-8′-yl)pyridin-3-yl)methanesulfonamide]
7 | > 0.1 µM | COc1ncc(-c2ccc3ncc4c(c3c2)C2(CC2)C(=O)N4C)cc1CS(=O)(=O)c1ccc(C)nc1 [Example 209, 8′-(6-Methoxy-5-(((6-methylpyridin-3-yl)sulfonyl)methyl)pyridin-3-yl)-3′-methylspiro[cyclopropane-1,1′-pyrrolo[2,3-c]quinolin]-2′(3′-H)-one]
8 | > 0.1 µM | CN1C(=O)C2(CC2)c2c1cnc1ccc(-c3cccc4[nH]ncc34)cc21 [Example 50, 8′-(1H-indazol-4-yl)-3′-methylspiro[cyclopropane-1,1′-pyrrolo[2,3-c]quinolin]-2′(3′-H)-one]
9 | 0.001 to 0.1 µM | CN1C(=O)C2(CCC2)c2c1cnc1cc(F)c(-c3cnc(N4CC(N(C)C)C4)c(NS(=O)(=O)N4CCOCC4)c3)cc21 [Example 312, N-(2-(3-(Dimethylamino)azetidin-1-yl)-5-(7′-fluoro-3′-methyl-2′-oxo-2′,3′-dihydrospiro[cyclobutane-1,1′-pyrrolo[2,3-c]quinolin]-8′-yl)pyridin-3-yl)morpholine-4-sulfonamide hydrochloride]
10 | 0.001 to 0.1 µM | CN(C)CCCOc1ncc(-c2ccc3ncc4c(c3c2)C2(CC2)C(=O)N4C)cc1NS(=O)(=O)c1ccc(Cl)nc1 [Example 105, 6-Chloro-N-(2-(3-(dimethylamino)propoxy)-5-(3′-methyl-2′-oxo-2′,3′-dihydrospiro[cyclopropane-1,1′-pyrrolo[2,3-c]quinolin]-8′-yl)pyridin-3-yl)pyridine-3-sulfonamide]
11 | 0.001 to 0.1 µM | CN1C(=O)C2(CC2)c2c1cnc1ccc(-c3cnc(OCCC[N+](C)(C)[O-])c(NS(=O)(=O)c4ccccc4)c3)cc21 [Example 140, N,N-Dimethyl-3-((5-(3′-methyl-2′-oxo-2′,3′-dihydrospiro[cyclopropane-1,1′-pyrrolo[2,3-c]quinolin]-8′-yl)-3-(phenylsulfonamido)pyridin-2-yl)oxy)propan-1-amine oxide]

Row | SMILES | IC50
12 | CC(CCOc1ncc(-c2ccc3ncc4c(c3c2)C2(CCC2)C(=O)N4C)cc1NS(C)(=O)=O)N(C)C (stereo not shown) [Example 292, N-(2-(3-(Dimethylamino)butoxy)-5-(3′-methyl-2′-oxo-2′,3′-dihydrospiro [cyclobutane-1,1′-pyrrolo[2,3-c]quinolin]-8′-yl)pyridin-3-yl)methanesulfonamide] | 0.001 to 0.1 µM

Same assay, conditions: pKAP1 in etoposide-treated MCF-7 cells

Row | IC50 | SMILES
13 | > 0.1 µM | CN1C(=O)C2(CCC2)c2c1cnc1ccc(-c3cnc(N4CC5(CNC5)C4)c(NS(C)(=O)=O)c3)cc21 [Example 346, N-(5-(3′-Methyl-2′-oxo-2′,3′-dihydrospiro[cyclobutane-1,1 pyrrole[2,3-c]quinolin]-8′-yl)-2-(2,6-diazaspiro[3.3]heptan-2-yl)pyridin-3-yl) methanesulfonamide formate]
14 | 0.001 to 0.1 µM | COC[C@H]1C[C@@]2(C1)C(=O)N(C)c1cnc3cc(F)c(-c4cnc(OCCNC(C)C)c(NS(C)(=O)=O)c4)cc3c12 [Example 405, trans-N-(5-(7′-Fluoro-3-(methoxymethyl)-3′-methyl-2′-oxo-2′,3′-dihydrospiro[cyclobutane-1,1′-pyrrolo[2,3-c]quinolin]-8′-yl)-2-(2-(isopropylamino)ethoxy)pyridin-3-yl)methanesulfonamide]
15 | 0.001 to 0.1 µM | CC(C)NCCOc1ncc(-c2cc3c(cc2F)ncc2c3[C@]3(C[C@H](CN(C)C)C3)C(=O)N2C)cc1NS(C)(=O)=O [Example 452, cis-N-(5-(3-((Dimethylamino)methyl)-7′-fluoro-3′-methyl-2′-oxo-2′,3′-dihydrospiro[cyclobutane-1,1′-pyrrolo[2,3-c]quinolin]-8′-yl)-2-(2-(isopropylamino)ethoxy)pyridin-3-yl)methanesulfonamide]
16 | 0.001 to 0.1 µM | CCCN1CC2(C1)C(=O)N(C)c1cnc3cc(F)c(-c4cnc(OCCNC(C)C)c(NS(C)(=O)=O)c4)cc3c12 [Example 488, N-(5-(7′-Fluoro-3′-methyl-2′-oxo-1-propyl-2′,3′-dihydrospiro[azetidine-3,1′-pyrrolo[2,3-c]quinolin]-8′-yl)-2-(2-(isopropylamino)ethoxy)pyridin-3-yl)methanesulfonamide]
17 | 0.001 to 0.1 µM | CC(C)NCCOc1ncc(-c2cc3c4c(cnc3cc2F)N(C)C(=O)C42CN(c3cccc(OC(F)(F)F)c3)C2)cc1NS(C)(=O)=O [Example 542, N-(5-(7′-Fluoro-3′-methyl-2′-oxo-1-(3-(trifluoromethoxy)phenyl)-2′,3′-dihydrospiro[azetidine-3,1′-pyrrolo[2,3-c]quinolin]-8′-yl)-2-(2-(isopropylamino)ethoxy)pyridin-3-yl)methanesulfonamide]
18 | 0.001 to 0.1 µM | CC(C)NCCOc1ncc(-c2cc3c(cc2F)ncc2c3[C@]3(C[C@@H](Nc4ccc(Cl)cc4)C3)C(=O)N2C)cc1NS(C)(=O)=O [Example 462, trans-N-(5-(3-((4-Chlorophenyl)amino)-7′-fluoro-3′-methyl-2′-oxo-2′,3′-dihydrospiro[cyclobutane-1,1′-pyrrolo[2,3-c]quinolin]-8′-yl)-2-(2-(isopropylamino)ethoxy)pyridin-3-yl)methanesulfonamide]
19 | > 0.1 µM | CN1C(=O)C2(CCC2)c2c1cnc1cc(F)c(-c3cnc(N4CC(N(C)C)C4)c(NS(=O)(=O)C(F)F)c3)cc21 [Example 341, N-(2-(3-(Dimethylamino)azetidin-1-yl)-5-(7′-fluoro-3′-methyl-2′-oxo-2′,3′-dihydrospiro[cyclobutane-1,1′-pyrrolo[2,3-c]quinolin]-8′-yl)pyridin-3-yl)-1,1′-difluoromethane-sulfonamide formate]
20 | 0.001 to 0.1 µM | CO[C@H]1C[C@@]2(C1)C(=O)N(C)c1cnc3cc(F)c(-c4cnc(OCCNC(C)C)c(NS(C)(=O)=O)c4)cc3c12 [Example 386]
21 | 0.001 to 0.1 µM | CCOC[C@H]1C[C@@]2(C1)C(=O)N(C)c1cnc3cc(F)c(-c4cnc(OCCNC(C)C)c(NS(C)(=O)=O)c4)cc3c12 [Example 407, trans-N-(5-(3-(Ethoxymethyl)-7′-fluoro-3′-methyl-2′-oxo-2′,3′-dihydrospiro[cyclobutane-1,1′-pyrrolo[2,3-c]quinolin]-8′-yl)-2-(2-(isopropylamino)ethoxy)pyridin-3-yl)methanesulfonamide]
22 | 0.001 to 0.1 µM | CCC(CC)N1CC2(C1)C(=O)N(C)c1cnc3cc(F)c(-c4cnc(OCCNC(C)C)c(NS(C)(=O)=O)c4)cc3c12 [Example 490, N-(5-(7′-Fluoro-3′-methyl-2′-oxo-1-(pentan-3-yl)-2′,3′-dihydrospiro[azetidine-3,1′-pyrrolo[2,3-c]quinolin]-8′-yl)-2-(2-(isopropylamino)ethoxy)pyridin-3-yl)methanesulfonamide]
23 | > 0.1 µM | CC(C)NCCOc1ncc(-c2cc3c(cc2F)ncc2c3[C@]3(C[C@@H](N4CCOCC4)C3)C(=O)N2C)cc1NS(C)(=O)=O [Example 472, trans-N-(5-(7′-Fluoro-3′-methyl-3-morpholino-2′-oxo-2′,3′-dihydrospiro[cyclobutane-1,1′-pyrrolo[2,3-c]quinolin]-8′-yl)-2-(2-(isopropylamino)ethoxy)pyridin-3-yl)methanesulfonamide]
24 | 0.001 to 0.1 µM | CN(C)CCCOc1c(C#N)cc(-c2ccc3ncc4c(c3c2)C2(CCC2)C(=O)N4C)cc1NS(C)(=O)=O [Example 563, N-(3-Cyano-2-(3-(dimethylamino)propoxy)-5-(3′-methyl-2′-oxo-2′,3′-dihydrospiro[cyclobutane-1,1′-pyrrolo[2,3-c]quinolin]-8′-yl)phenyl)methanesulfonamide]
25 | 0.001 to 0.1 µM | CC(C)NCCOc1ncc(-c2cc3c(cc2F)ncc2c3[C@]3(C[C@@H](COc4ccccc4)C3)C(=O)N2C)cc1NS(C)(=O)=O [Example 408, trans-N-(5-(7′-Fluoro-3′-methyl-2′-oxo-3-(phenoxymethyl)-2′,3′-dihydrospiro[cyclobulane-1,1′-pyrrolo[2,3-c]quinolin]-8′-yl)-2-(2-(isopropylamino)ethoxy)pyridin-3-yl)methanesulfonamide]
